In patent US6204293A, “Inhibitors of protein isoprenyl transferases” (University of Pittsburgh, priority 1998, dated 2001):
Where a name gives a salt, the structure may show the parent alone.

These compounds were tested against T1, Rat brain protein farnesyltransferase (Rattus norvegicus, UniProt Q02293+Q04631) (assay: % inhibition of farnesylation, scintillation proximity assay with biotin-K Ras B fragment). Conditions: Table 1; 1 × 10^-5 M.
T1 construct: Rat brain protein farnesyltransferase activity is measured; from tissue; host or cells: rat brain
Type: biochemical
Text: The ability of the compounds of the invention to inhibit protein farnesyltransferase or protein geranylgeranyltransferase can be measured according to the method of Moores, et al., J. Biol. Chem. 266: 14603 (1991) or the method of Vogt, et al., J. Biol. Chem. 270:660-664 (1995). In addition, procedures for determination of the inhibition of farnesylation of the oncogene protein Ras are described by Goldstein, et al., J. Biol. Chem., 266:15575-15578 (1991) and by Singh in U.S. Pat. No. 5,245,061.
In addition, in vitro inhibition of protein farnesyltransferase may be measured by the following procedure. Rat brain protein farnesyltransferase activity is measured using an Amersham Life Science commercial scintillation proximity assay kit and substituting a biotin-K Ras B fragment (biotin-[…]CO2 H), 0.1 mM final concentration, for the biotin-lamin substrate provided by Amersham. The enzyme is purified according to Reiss, Y., et al., Cell, 62: 81-88 (1990), utilizing steps one through three.
The % inhibition of protein farnesyltransferase was determined for representative compounds of the invention.

T1 sequence (Q02293 whole entry, the tested form may be a part, one chain of several): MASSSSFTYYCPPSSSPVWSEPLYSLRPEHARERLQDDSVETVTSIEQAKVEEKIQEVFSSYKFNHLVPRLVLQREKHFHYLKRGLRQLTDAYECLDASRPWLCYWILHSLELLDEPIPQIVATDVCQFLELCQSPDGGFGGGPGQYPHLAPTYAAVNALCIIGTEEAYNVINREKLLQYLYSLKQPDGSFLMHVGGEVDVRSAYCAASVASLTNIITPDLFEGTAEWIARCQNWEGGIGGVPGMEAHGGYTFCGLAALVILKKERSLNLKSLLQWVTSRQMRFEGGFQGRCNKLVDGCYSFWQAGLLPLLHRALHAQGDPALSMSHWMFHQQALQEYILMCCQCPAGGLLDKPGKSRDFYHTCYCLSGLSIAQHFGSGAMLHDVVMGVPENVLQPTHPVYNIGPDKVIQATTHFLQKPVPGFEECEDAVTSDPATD

% inhibition at 1 × 10^-5 M [%]	Structure (SMILES)
69	CCn1cc(NCc2ccc(C(=O)N[C@@H](CCSC)C(=O)O)c(-c3ccccc3)c2)c(=O)n1CC [Example 364]
97	CSCC[C@H](NC(=O)c1ccc(CNCCN2CCOCC2)cc1-c1ccccc1)C(=O)O [Example 365]
83	CSCC[C@H](NC(=O)c1ccc(CNCCN2CCCCC2)cc1-c1ccccc1)C(=O)O [Example 366]
87	CSCC[C@H](NC(=O)c1ccc(CNCCc2cccs2)cc1-c1ccccc1)C(=O)O [Example 369]

Same assay, conditions: Table 2; 1 × 10^-6 M

Structure (SMILES)	% inhibition at 1 × 10^-6 M [%]
CCCCON(CCC1CCCCC1)Cc1ccc(C(=O)N[C@@H](CCS(C)(=O)=O)C(=O)O)c(-c2ccccc2C)c1 [Example 298]	43
CCCCN(C)N(CCC1CCCCC1)Cc1ccc(C(=O)N[C@@H](CCS(C)(=O)=O)C(=O)O)c(-c2ccccc2C)c1 [Example 300]	22
CSCC[C@H](NC(=O)c1ccc(CN(C)C(CC2CCCCC2)C(=O)N2CCCCC2)cc1-c1ccccc1C)C(=O)O (stereo partly drawn) [Example 301]	98
CSCC[C@H](NC(=O)c1ccc(CNC(C)(C)Cc2ccccc2)cc1-c1ccccc1C)C(=O)O [Example 307]	82
CSCC[C@H](NC(=O)c1ccc(CN(C)C(C)(C)Cc2ccccc2)cc1-c1ccccc1C)C(=O)O [Example 309]	98
Cc1ccccc1-c1cc(CNC(C)(C)Cc2ccccc2)ccc1C(=O)N[C@@H](CCS(C)(=O)=O)C(=O)O [Example 311]	97
Cc1ccccc1-c1cc(CN(C)C(C)(C)Cc2ccccc2)ccc1C(=O)N[C@@H](CCS(C)(=O)=O)C(=O)O [Example 313]	94
Cc1ccccc1-c1cc(CN(C)C(C)(C)CC2CCCCC2)ccc1C(=O)N[C@@H](CCS(C)(=O)=O)C(=O)O [Example 314]	97
CSCC[C@H](NC(=O)c1ccc(CN(C2CC2)C(C)(C)Cc2ccccc2)cc1-c1ccccc1C)C(=O)O [Example 315]	93
CSCC[C@H](NC(=O)c1ccc(CN(C2CC2)C(C)(C)CC2CCCCC2)cc1-c1ccccc1C)C(=O)O [Example 316]	63
CSCC[C@H](NC(=O)c1ccc(CN(C(C)C)C(C)(C)Cc2ccccc2)cc1-c1ccccc1C)C(=O)O [Example 317]	54
CSCC[C@H](NC(=O)c1ccc(CN(C(C)C)C(C)(C)CC2CCCCC2)cc1-c1ccccc1C)C(=O)O [Example 318]	98
Cc1ccccc1-c1cc(CN(C2CC2)C(C)(C)Cc2ccccc2)ccc1C(=O)N[C@@H](CCS(C)(=O)=O)C(=O)O [Example 319]	98
Cc1ccccc1-c1cc(CN(C2CC2)C(C)(C)CC2CCCCC2)ccc1C(=O)N[C@@H](CCS(C)(=O)=O)C(=O)O [Example 320]	93
CSCC[C@H](NC(=O)c1ccc(CN(C2CC2)C2(CC3CCCCC3)CC2)cc1-c1ccccc1C)C(=O)O [Example 324]	98
CSCC[C@H](NC(=O)c1ccc(CN(C(C)C)C2(Cc3ccccc3)CC2)cc1-c1ccccc1C)C(=O)O [Example 325]	99
CSCC[C@H](NC(=O)c1ccc(CN(C(C)C)C2(CC3CCCCC3)CC2)cc1-c1ccccc1C)C(=O)O [Example 326]	91
CSCC[C@H](NC(=O)c1ccc(CN(C2CC2)C2(Cc3ccccc3)CCC2)cc1-c1ccccc1C)C(=O)O [Example 329]	98
CSCC[C@H](NC(=O)c1ccc(CN(C2CC2)C2(CC3CCCCC3)CCC2)cc1-c1ccccc1C)C(=O)O [Example 330]	98
CSCC[C@H](NC(=O)c1ccc(CN(C(C)C)C2(Cc3ccccc3)CCC2)cc1-c1ccccc1C)C(=O)O [Example 331]	98
CSCC[C@H](NC(=O)c1ccc(CN(C(C)C)C2(CC3CCCCC3)CCC2)cc1-c1ccccc1C)C(=O)O [Example 332]	26
Cc1ccccc1-c1cc(CN(C2CC2)C2(Cc3ccccc3)CCC2)ccc1C(=O)N[C@@H](CCS(C)(=O)=O)C(=O)O [Example 333]	99
Cc1ccccc1-c1cc(CN(C2CC2)C2(CC3CCCCC3)CCC2)ccc1C(=O)N[C@@H](CCS(C)(=O)=O)C(=O)O [Example 334]	93
CSCC[C@H](NC(=O)c1ccc(CN(C(C)C)C2(Cc3ccccc3)CCCC2)cc1-c1ccccc1C)C(=O)O [Example 343]	72
CSCC[C@H](NC(=O)c1ccc(CN(C(C)C)C2(CC3CCCCC3)CCCC2)cc1-c1ccccc1C)C(=O)O [Example 344]	95
Cc1ccccc1-c1cc(CN(C2CC2)C2(Cc3ccccc3)CCCC2)ccc1C(=O)N[C@@H](CCS(C)(=O)=O)C(=O)O [Example 345]	91
Cc1ccccc1-c1cc(CN(C2CC2)C2(CC3CCCCC3)CCCC2)ccc1C(=O)N[C@@H](CCS(C)(=O)=O)C(=O)O [Example 346]	98
CSCC[C@H](NC(=O)c1ccc(CN2C(=O)OC[C@@H]2CC2CCCCC2)cc1-c1ccccc1C)C(=O)O [Example 349]	99

Now from value to compound:

% inhibition at 1 × 10^-6 M [%]	Structure (SMILES)
12	CSCCC(NC(=O)c1ccc(NC(=O)Cc2cscn2)cc1-c1ccccc1)C(=O)O (stereo not drawn) [Example 162]
18	CSCC[C@H](NC(=O)c1ccc(NC(=O)Cc2nccs2)cc1-c1ccccc1)C(=O)O [Example 163]
92	COC(=O)[C@H](CCSC)NC(=O)c1ccc(NC(=O)[C@@H]2CSCN2)cc1-c1ccccc1.Cl [Example 164]
74	CSCC[C@H](NC(=O)c1ccc(NC(=O)[C@@H]2CSCN2)cc1-c1ccccc1)C(=O)O [Example 165]
97	CSCC[C@H](NC(=O)c1ccc(NC[C@@H]2CSCN2)cc1-c1ccccc1)C(=O)O.Cl [Example 166]
31	CSCC[C@H](NC(=O)c1ccc(NC(=O)C2CCC(=O)N2)cc1-c1ccccc1)C(=O)O (stereo partly drawn) [Example 202]
56	CSCCC(NC(=O)c1ccc(NC(=O)c2cncnc2)cc1-c1ccccc1)C(=O)O (stereo not drawn) [Example 219]
41	CSCC[C@H](NC(=O)c1ccc(N2CC(=O)NNC2=O)cc1-c1ccccc1)C(=O)O [Example 224]
50	CSCCC(NC(=O)c1ccc(NC(=O)C2CCCNC2)cc1-c1ccccc1)C(=O)O (stereo not drawn) [Example 231]
98	CSCC[C@H](NC(=O)c1ccc(NC(=O)C2=C(C(F)(F)F)C=CNC2)cc1-c1ccccc1)C(=O)O [Example 283]
84	CSCC[C@H](NC(=O)c1ccc(NCC2CNCCN2)cc1-c1ccccc1)C(=O)O (stereo partly drawn) [Example 286]
31	CSCC[C@H](NC(=O)c1ccc(CNCc2ccco2)cc1-c1ccccc1)C(=O)[O-].[Li+] [Example 302]
62	CSCC[C@H](NC(=O)c1ccc(CNC(C)(C)CC2CCCCC2)cc1-c1ccccc1C)C(=O)O [Example 308]

Same assay, conditions: read-out: % inhibition at 1 × 10^-6 M

Structure (SMILES)	inhibition at 1 µM [%]
CSCC[C@H](NC(=O)c1ccc(COCc2cccs2)cc1-c1ccccc1C)C(=O)O [Example 273, [4-(2-thienylmethoxymethyl)-2-(2-methylphenyl)benzoyl]methionine Lithium salt]	96
CSCC[C@H](NC(=O)c1ccc(COCc2ccsc2)cc1-c1ccccc1C)C(=O)O [Example 274, [4-(3-thienylmethoxymethyl)-2-(2-methylphenyl)benzoyl]methionine Lithium salt]	94
CSCC[C@H](NC(=O)c1ccc(COCc2ccc(-c3ccccc3)o2)cc1-c1ccccc1C)C(=O)O [Example 327, [4-(5-phenylfur-2-ylmethyloxymethyl)-2-(2-methylphenyl)benzoyl]methionine lithium salt]	97

Same assay, conditions: read-out: % inhibition at 1 × 10^-6 M; Table 2; 1 × 10^-6 M

Structure (SMILES)	inhibition at 1 µM [%]
CSCC[C@H](NC(=O)c1ccc(COc2nc3ccccc3s2)cc1-c1ccccc1C)C(=O)O [Example 321, [4-(2-benzothiazolyloxymethyl)-2-(2-methylphenyl)benzoyl]methionine]	90
CSCC[C@H](NC(=O)c1ccc(CSc2nc3ccccc3o2)cc1-c1ccccc1C)C(=O)O [Example 322, [4-(2-benzoxazolylthiomethyl)-2-(2-methylphenyl)benzoyl]methionine]	98
CSCC[C@H](NC(=O)c1ccc(CSc2nc3ccccc3s2)cc1-c1ccccc1C)C(=O)O [Example 323, [4-(2-benzothiazolylthiomethyl)-2-(2-methylphenyl)benzoyl]methionine]	98

Further lines, results first:

inhibition at 1 µM [%]	Structure (SMILES)
24	CSCC[C@H](NC(=O)c1ccc(COCC2CCOC2)cc1-c1ccccc1)C(=O)O (stereo partly drawn) [Example 287, [4-(3-tetrahydrofurylmethyloxymethyl)-2-phenylbenzoyl]methionine]
22	CSCC[C@H](NC(=O)c1ccc(COCC2CCCO2)cc1-c1ccccc1)C(=O)O (stereo partly drawn) [Example 288, [4-(2-tetrahydrofurylmethyloxymethyl)-2-phenylbenzoyl]methionine]
94	CSCC[C@H](NC(=O)c1ccc(COCc2ccco2)cc1-c1ccccc1C)C(=O)O [Example 299, [4-(2-furylmethyloxymethyl)-2-(2-methylphenyl)benzoyl]methionine]
